The values that follow come from US12448394B2, “Heterocyclic pyrazole derivatives as type III receptor tyrosine kinase inhibitors” (DEVELOPMENT CENTER FOR BIOTECHNOLOGY, priority 2019, dated 2025).

Molecules are shown by their SMILES. Where only a bound is given, the exact number is not on record here.

One assay deals with T1, FLT3 kinase (Homo sapiens, UniProt P36888).
T1 construct: purchased SignalChem
T1 sequence (P36888 27-993): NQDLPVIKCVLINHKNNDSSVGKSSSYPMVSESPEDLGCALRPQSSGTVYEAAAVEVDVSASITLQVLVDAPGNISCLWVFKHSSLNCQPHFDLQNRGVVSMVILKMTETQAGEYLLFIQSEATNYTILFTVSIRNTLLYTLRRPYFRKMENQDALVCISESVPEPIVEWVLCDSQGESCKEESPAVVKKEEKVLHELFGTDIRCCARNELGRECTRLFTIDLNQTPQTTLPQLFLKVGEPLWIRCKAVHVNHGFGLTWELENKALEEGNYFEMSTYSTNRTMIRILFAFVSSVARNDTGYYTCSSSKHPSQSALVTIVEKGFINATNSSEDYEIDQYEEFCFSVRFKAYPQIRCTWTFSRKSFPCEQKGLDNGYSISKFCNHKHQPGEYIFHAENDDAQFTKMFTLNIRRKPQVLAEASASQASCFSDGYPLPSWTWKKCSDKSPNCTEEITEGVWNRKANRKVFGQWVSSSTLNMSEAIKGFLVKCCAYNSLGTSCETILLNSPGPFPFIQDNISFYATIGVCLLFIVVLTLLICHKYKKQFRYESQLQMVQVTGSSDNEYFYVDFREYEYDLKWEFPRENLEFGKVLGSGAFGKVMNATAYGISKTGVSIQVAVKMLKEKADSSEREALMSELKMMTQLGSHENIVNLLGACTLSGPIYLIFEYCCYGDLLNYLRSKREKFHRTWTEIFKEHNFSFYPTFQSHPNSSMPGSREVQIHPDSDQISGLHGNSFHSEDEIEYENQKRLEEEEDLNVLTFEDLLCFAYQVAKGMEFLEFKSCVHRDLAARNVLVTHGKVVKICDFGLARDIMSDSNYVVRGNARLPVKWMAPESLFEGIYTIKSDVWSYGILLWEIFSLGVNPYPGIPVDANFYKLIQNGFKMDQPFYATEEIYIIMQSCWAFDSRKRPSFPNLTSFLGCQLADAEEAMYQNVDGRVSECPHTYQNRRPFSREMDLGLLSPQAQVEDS
Nature of the assay: FLT3 kinase assay (AlphaScreen). Format: biochemical. The following applies: read-out: Ranking of IC50 values, FLT3. Summed up: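 AlphaScreen detection of biotin-poly(Glu4:Tyr1) phosphorylation by 1.5 ng recombinant FLT3 (10 μM ATP, pH 7.0 MOPS, 10 mM MgCl2; 30 °C, 30 min, EDTA quench). IC50 values derived from serially diluted compound tested in duplicate.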
On the technique in general: Alpha assays give light when donor and acceptor beads are brought close together.

The next assay has as its target T2, PDGFRα kinase (Homo sapiens, UniProt P16234).
T2 construct: purchased SignalChem
The experiment in a line: PDGFRα kinase assay (AlphaScreen). It counts as biochemical. The following applies: read-out: Ranking of IC50 values, PDGFRα. Put shortly: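 IC50 values came from duplicate serial dilutions, with product read by AlphaScreen. The reaction ran 30 min at 30 °C, then EDTA stop: 1.5 ng recombinant enzyme, biotin-poly(Glu4:Tyr1) substrate, 10 μM ATP, 10 mM MOPS pH 7.0, 10 mM MgCl2.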

Assay [1] has as its system THP-1 human acute monocytic leukemia cell with NRAS G12D mutation. Nature of the assay: THP-1 cell proliferation assay (counter screen). It counts as cell-based. The following applies: Homo sapiens, THP-1 cells, 72 hours treatment, CellTiter96, read-out: anti-proliferation activity THP-1 NRAS N12D, IC50 ranking. Put shortly:
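Viability measured as 490 nm absorbance after 2–4 h with CellTiter96 AQueous One reagent, following 72 h treatment with rising compound concentrations. THP-1 cells, 5000/well, grown in RPMI 1640 with 10% FBS and 0.05 mM 2-mercaptoethanol at 37° C, 5% CO2, plated overnight before dosing.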
Background: A counterscreen serves to expose hits that act by an unwanted route or on another target.

Assay [2] relates to A375 melanoma cell with BRAF V600E mutation. Nature of the assay: A375 cell proliferation assay (counter screen). Format: cell-based, human. The following applies: Homo sapiens, A-375, A375 cells, 72 hours treatment, CellTiter96, read-out: anti-proliferation activity A375 BRAF V600E, IC50 ranking. Summed up: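 A375 cells (BRAF V600E) seeded at 2000 cells/well in DMEM with 10% FBS, settled overnight at 37° C, 5% CO2, then exposed to increasing compound concentrations for 72 hours. Viability read by MTS-type CellTiter96 AQueous reagent, absorbance at 490 nm after 2–4 hours.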

T2 sequence (P16234 24-1089): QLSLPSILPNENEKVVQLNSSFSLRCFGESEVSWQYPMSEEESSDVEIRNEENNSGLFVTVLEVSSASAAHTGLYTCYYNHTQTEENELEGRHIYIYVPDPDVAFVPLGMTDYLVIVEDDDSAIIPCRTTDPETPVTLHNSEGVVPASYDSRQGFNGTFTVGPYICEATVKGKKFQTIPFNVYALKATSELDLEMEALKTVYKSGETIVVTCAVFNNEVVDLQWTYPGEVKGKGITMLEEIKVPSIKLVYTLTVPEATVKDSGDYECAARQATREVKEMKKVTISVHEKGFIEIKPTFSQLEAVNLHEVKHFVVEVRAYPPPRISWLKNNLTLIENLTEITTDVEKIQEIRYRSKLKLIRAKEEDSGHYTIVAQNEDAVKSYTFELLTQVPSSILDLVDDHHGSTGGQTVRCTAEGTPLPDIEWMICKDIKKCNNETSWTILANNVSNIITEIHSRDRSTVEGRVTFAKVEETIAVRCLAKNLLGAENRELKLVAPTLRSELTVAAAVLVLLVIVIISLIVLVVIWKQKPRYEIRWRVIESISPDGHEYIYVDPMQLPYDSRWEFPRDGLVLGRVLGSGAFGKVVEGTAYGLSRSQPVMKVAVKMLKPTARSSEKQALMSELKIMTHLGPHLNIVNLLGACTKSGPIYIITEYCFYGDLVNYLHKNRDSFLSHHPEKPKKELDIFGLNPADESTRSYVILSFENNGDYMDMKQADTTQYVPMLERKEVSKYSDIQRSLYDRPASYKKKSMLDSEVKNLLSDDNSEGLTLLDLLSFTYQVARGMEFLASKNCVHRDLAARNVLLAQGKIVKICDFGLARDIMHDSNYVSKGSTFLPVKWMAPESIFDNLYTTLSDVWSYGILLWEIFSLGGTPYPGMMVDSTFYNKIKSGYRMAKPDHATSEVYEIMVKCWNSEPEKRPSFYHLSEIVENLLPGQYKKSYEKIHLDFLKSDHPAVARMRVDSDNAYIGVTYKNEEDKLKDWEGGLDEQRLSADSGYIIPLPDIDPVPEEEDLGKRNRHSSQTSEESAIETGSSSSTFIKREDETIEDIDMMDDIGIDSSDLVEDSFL

Consider `Cn1ncc2ccc(-c3n[nH]c4c3Cc3sc(-c5csc(C(=O)N6CCOCC6)c5)cc3-4)cc21` [Compound 48, (4-(3-(1-methyl-1H-indazol-6-yl)-1,4-dihydro-thieno[2′,3′:4,5]cyclopenta [1,2-c]pyrazol-6-yl)thiophen-2-yl) (morpholino)methanone], for which the IC50 on FLT3 kinase is less than 1 nM; at PDGFRα kinase it was 1 to 10 nM; in assay [1] it was greater than 10000 nM; in assay [2], greater than 10000 nM.
For `CN(C)C(=O)c1ccc(-c2cc3c(s2)Cc2c(-c4ccc5cnn(C)c5c4)n[nH]c2-3)cc1` [Compound 49, N,N-dimethyl-4-(3-(1-methyl-1H-indazol-6-yl)-1,4-dihydrothieno [2′,3′:4,5]cyclopenta [1,2-c]pyrazol-6-yl) benzamide], the IC50 was less than 1 nM on FLT3 kinase, 1 to 10 nM on PDGFRα kinase, greater than 10000 nM in assay [1] and greater than 10000 nM in assay [2].
As to `CN(C)S(=O)(=O)c1ccc(-c2cc3c(s2)Cc2c(-c4ccc5cnn(C)c5c4)n[nH]c2-3)cc1` [Compound 50, N,N-dimethyl-4-(3-(1-methyl-1H-indazol-6-yl)-1,4-dihydrothieno [2′,3′:4,5]cyclopenta [1,2-c]pyrazol-6-yl) benzenesulfonamide], the IC50 at FLT3 kinase was less than 1 nM; on PDGFRα kinase, 10 to 30 nM; in assay [1], greater than 10000 nM; in assay [2], greater than 10000 nM.
In the case of `Cn1ncc2ccc(-c3n[nH]c4c3Cc3sc(-c5ccc(CN6CCOCC6)s5)cc3-4)cc21` [Compound 51, 4-((5-(3-(1-methyl-1H-indazol-6-yl)-1,4-dihydro-thieno[2′,3′:4,5]cyclopenta [1,2-c]pyrazol-6-yl)thiophen-2-yl)methyl) morpholine], the IC50 on FLT3 kinase was less than 1 nM; on PDGFRα kinase it was 10 to 30 nM; in assay [1], greater than 10000 nM; in assay [2], greater than 10000 nM.
With `Cn1ncc2ccc(-c3n[nH]c4c3Cc3sc(-c5csc(CN6CCOCC6)c5)cc3-4)cc21` [Compound 52, 4-((4-(3-(1-methyl-1H-indazol-6-yl)-1,4-dihydro-thieno[2′,3′:4,5]cyclopenta [1,2-c]pyrazol-6-yl)thiophen-2-yl)methyl) morpholine], the IC50 at FLT3 kinase is less than 1 nM; at PDGFRα kinase, 10 to 30 nM; in assay [1] it was greater than 10000 nM; in assay [2], greater than 10000 nM.
With `Cn1ncc2ccc(-c3n[nH]c4c3Cc3sc(-c5cc(F)c(CN6CCOCC6)c(F)c5)cc3-4)cc21` [Compound 53, 4-(2,6-difluoro-4-(3-(1-methyl-1H-indazol-6-yl)-1,4-dihydrothieno [2′,3′:4,5]cyclopenta [1,2-c]pyrazol-6-yl)benzyl)morpholine], the IC50 at FLT3 kinase is less than 1 nM; on PDGFRα kinase it was 30 to 100 nM; in assay [1], greater than 10000 nM; in assay [2], greater than 10000 nM.
Consider `C[C@@H]1CN(Cc2ccc(-c3cc4c(s3)Cc3c(-c5ccc6cnn(C)c6c5)n[nH]c3-4)cc2)C[C@H](C)O1` [Compound 54, (2S,6R)-2,6-dimethyl-4-(4-(3-(1-methyl-1H-indazol-6-yl)-1,4-dihydro-thieno[2′,3′:4,5]cyclopenta [1,2-c]pyrazol-6-yl)benzyl)morpholine], for which the IC50 at FLT3 kinase is less than 1 nM; on PDGFRα kinase, 1 to 10 nM; in assay [1], greater than 10000 nM; in assay [2], greater than 10000 nM.
As to `Cn1ncc2ccc(-c3n[nH]c4c3Cc3sc(-c5cc(C(=O)N6CCOCC6)ccn5)cc3-4)cc21` [Compound 56, (2-(3-(1-methyl-1H-indazol-6-yl)-1,4-dihydro-thieno[2′,3′:4,5]cyclopenta [1,2-c]pyrazol-6-yl)pyridin-4-yl)(morpholino) methanone], the IC50 at FLT3 kinase is 1 to 10 nM; on PDGFRα kinase, 1 to 10 nM; in assay [1] it was greater than 10000 nM; in assay [2], greater than 10000 nM.
As for `Cn1ncc2ccc(-c3n[nH]c4c3Cc3sc(C5=CCN(C(=O)N6CCOCC6)CC5)cc3-4)cc21` [Compound 57, (4-(3-(1-methyl-1H-indazol-6-yl)-1,4-dihydro-thieno[2′,3′:4,5]cyclopenta [1,2-c]pyrazol-6-yl)-3,6-dihydropyridin-1(2H)-yl) (morpholino)methanone], the IC50 on FLT3 kinase was less than 1 nM; at PDGFRα kinase, 10 to 30 nM; in assay [1] it was greater than 10000 nM; in assay [2], greater than 10000 nM.
With `Cn1ncc2ccc(-c3n[nH]c4c3Cc3sc(C5CCN(C(=O)OC(C)(C)C)CC5)cc3-4)cc21` [Compound 58, tert-butyl-4-(3-(1-methyl-1H-indazol-6-yl)-1,4-dihydrothieno[2′,3′:4,5]cyclopenta[1,2-c]pyrazol-6-yl)piperidine-1-carboxylate], the IC50 on FLT3 kinase was 1 to 10 nM; on PDGFRα kinase, 30 to 100 nM; in assay [1], greater than 10000 nM; in assay [2], greater than 10000 nM.
Take `Cn1ncc2ccc(-c3n[nH]c4c3Cc3sc(-c5ccc(CN6CCOCC6=O)cc5)cc3-4)cc21` [Compound 59, 4-(4-(3-(1-methyl-1H-indazol-6-yl)-1,4-dihydro-thieno[2′,3′:4,5]cyclopenta [1,2-c]pyrazol-6-yl)benzyl)morpholin-3-one]: the IC50 was less than 1 nM on FLT3 kinase, 1 to 10 nM at PDGFRα kinase, greater than 10000 nM in assay [1] and greater than 10000 nM in assay [2].
For `Cn1ncc2ccc(-c3n[nH]c4c3Cc3sc(-c5csc(C(=O)N6CCOCC6)n5)cc3-4)cc21` [Compound 60, (4-(3-(1-methyl-1H-indazol-6-yl)-1,4-dihydro-thieno[2′,3′:4,5]cyclopenta [1,2-c]pyrazol-6-yl)thiazol-2-yl)(morpholino) methanone], the IC50 on FLT3 kinase was less than 1 nM; on PDGFRα kinase, 1 to 10 nM; in assay [1] it was 1000 to 10000 nM; in assay [2] it was 1000 to 10000 nM.
As for `Cn1ncc2ccc(-c3n[nH]c4c3Cc3sc(-c5ccc(CN6CCCCC6=O)cc5)cc3-4)cc21` [Compound 61, 1-(4-(3-(l-methyl-1H-indazol-6-yl)-1,4-dihydro-thieno[2′,3′:4,5]cyclopenta [1,2-c]pyrazol-6-yl)benzyl)piperidin-2-one], the IC50 at FLT3 kinase is 1 to 10 nM; on PDGFRα kinase, 1 to 10 nM; in assay [1], greater than 10000 nM; in assay [2], greater than 10000 nM.
Take `Cn1ncc2ccc(-c3n[nH]c4c3Cc3sc(-c5ccc(CN6CCNC(=O)C6)cc5)cc3-4)cc21` [Compound 63, 4-(4-(3-(1-methyl-1H-indazol-6-yl)-1,4-dihydro-thieno[2′,3′:4,5]cyclopenta [1,2-c]pyrazol-6-yl)benzyl)piperazin-2-one]: the IC50 was 1 to 10 nM at FLT3 kinase, 1 to 10 nM at PDGFRα kinase, greater than 10000 nM in assay [1] and greater than 10000 nM in assay [2].
On to `Cn1ncc2ccc(-c3n[nH]c4c3Cc3sc(-c5ccc(CN6CCCC6=O)cc5)cc3-4)cc21` [Compound 64, 1-(4-(3-(1-methyl-1H-indazol-6-yl)-1,4-dihydro-thieno[2′,3′:4,5]cyclopenta [1,2-c]pyrazol-6-yl)benzyl)pyrrolidin-2-one], for which the IC50 on FLT3 kinase was 1 to 10 nM; at PDGFRα kinase, 10 to 30 nM; in assay [1], greater than 10000 nM; in assay [2], greater than 10000 nM.
Regarding `CC1C(=O)N(C)CCN1Cc1ccc(-c2cc3c(s2)Cc2c(-c4ccc5cnn(C)c5c4)n[nH]c2-3)cc1` (stereo not shown) [Compound 65, 1,3-dimethyl-4-(4-(3-(1-methyl-1H-indazol-6-yl)-1,4-dihydrothieno [2′,3′:4,5]cyclopenta [1,2-c]pyrazol-6-yl)benzyl)piperazin-2-one], the IC50 on FLT3 kinase is 1 to 10 nM; on PDGFRα kinase it was 1 to 10 nM; in assay [1] it was greater than 10000 nM; in assay [2] it was greater than 10000 nM.
